Measured values reported in US20200207759A1, “NEW PROPANAMINE DERIVATIVES FOR TREATING PAIN AND PAIN RELATED CONDITIONS” (ESTEVE PHARMACEUTICALS, S.A., priority 2017, published 2020).

Assays:
[1] = target: Human norepinephrine transporter (NET) (Homo sapiens, UniProt P23975); assay: Binding assay to human norepinephrine transporter (NET), [3H]-Nisoxetin; conditions: human NET enriched membranes, 5 nM [3H]-Nisoxetin; read-out: Ki (nM) NET Hum
Procedure: Binding Assay to Human Norepinephrine Transporter (NET).
Human norepinephrine transporter (NET) enriched membranes (5 μg) were incubated with 5 nM of radiolabeled [3H]-Nisoxetin in assay buffer containing 50 mM Tris-HCl, 120 mM NaCl, 5 mM KCl, pH 7.4.
NSB (non specific binding) was measured by adding 1 μM. After 60 min incubation at 4° C., binding reaction was terminated by filtering through Multiscreen GF/C (Millipore) presoaked in 0.5% polyethyleneimine in Vacuum Manifold Station, followed by 3 washes with ice-cold filtration buffer containing 50 mM Tris-HCl, 0.9% NaCl, pH 7.4. Filter plates were dried at 60° C. for 1 hour and 30 μl of scintillation cocktail were added to each well before radioactivity reading.

[2] = target: Human α2δ-1 subunit of Cav2.2 calcium channel (Homo sapiens, UniProt P54289); assay: Binding assay to human α2δ-1 subunit of Cav2.2 calcium channel, [3H]-Gabapentin; conditions: human α2δ-1 enriched membranes, 15 nM [3H]-Gabapentin; read-out: Ki (nM) alpha2delta Hum
Procedure: Binding Assay to Human α2δ-1 Subunit of Cav2.2 Calcium Channel.
Human α2δ-1 enriched membranes (2.5 μg) were incubated with 15 nM of radiolabeled [3H]-Gabapentin in assay buffer containing Hepes-KOH 10 mM, pH 7.4.
NSB (non specific binding) was measured by adding 10 μM pregabalin. After 60 min incubation at 27° C., binding reaction was terminated by filtering through Multiscreen GF/C (Millipore) presoaked in 0.5% polyethyleneimine in Vacuum Manifold Station, followed by 3 washes with ice-cold filtration buffer containing 50 mM Tris-HCl, pH 7.4.
Filter plates were dried at 60° C. for 1 hour and 30 μl of scintillation cocktail were added to each well before radioactivity reading.
Readings were performed in a Trilux 1450 Microbeta radioactive counter (Perkin Elmer).

Human norepinephrine transporter (NET), sequence (P23975 whole entry): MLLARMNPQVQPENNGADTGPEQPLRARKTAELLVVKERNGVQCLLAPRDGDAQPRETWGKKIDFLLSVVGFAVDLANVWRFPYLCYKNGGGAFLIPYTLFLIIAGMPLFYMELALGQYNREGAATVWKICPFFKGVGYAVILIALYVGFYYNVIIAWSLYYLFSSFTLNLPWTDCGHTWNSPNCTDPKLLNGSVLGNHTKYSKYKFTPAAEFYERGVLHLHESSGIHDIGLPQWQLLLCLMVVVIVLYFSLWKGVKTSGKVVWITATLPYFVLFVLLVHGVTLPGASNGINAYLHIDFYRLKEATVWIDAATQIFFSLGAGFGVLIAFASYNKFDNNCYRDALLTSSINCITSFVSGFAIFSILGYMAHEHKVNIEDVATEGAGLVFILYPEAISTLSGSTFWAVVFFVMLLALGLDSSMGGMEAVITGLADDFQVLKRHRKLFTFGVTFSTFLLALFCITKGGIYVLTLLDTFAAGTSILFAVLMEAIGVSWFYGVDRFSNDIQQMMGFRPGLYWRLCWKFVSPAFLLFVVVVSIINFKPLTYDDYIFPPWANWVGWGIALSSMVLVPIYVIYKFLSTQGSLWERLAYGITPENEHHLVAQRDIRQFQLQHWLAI
Human α2δ-1 subunit of Cav2.2 calcium channel, sequence (P54289 25-1103): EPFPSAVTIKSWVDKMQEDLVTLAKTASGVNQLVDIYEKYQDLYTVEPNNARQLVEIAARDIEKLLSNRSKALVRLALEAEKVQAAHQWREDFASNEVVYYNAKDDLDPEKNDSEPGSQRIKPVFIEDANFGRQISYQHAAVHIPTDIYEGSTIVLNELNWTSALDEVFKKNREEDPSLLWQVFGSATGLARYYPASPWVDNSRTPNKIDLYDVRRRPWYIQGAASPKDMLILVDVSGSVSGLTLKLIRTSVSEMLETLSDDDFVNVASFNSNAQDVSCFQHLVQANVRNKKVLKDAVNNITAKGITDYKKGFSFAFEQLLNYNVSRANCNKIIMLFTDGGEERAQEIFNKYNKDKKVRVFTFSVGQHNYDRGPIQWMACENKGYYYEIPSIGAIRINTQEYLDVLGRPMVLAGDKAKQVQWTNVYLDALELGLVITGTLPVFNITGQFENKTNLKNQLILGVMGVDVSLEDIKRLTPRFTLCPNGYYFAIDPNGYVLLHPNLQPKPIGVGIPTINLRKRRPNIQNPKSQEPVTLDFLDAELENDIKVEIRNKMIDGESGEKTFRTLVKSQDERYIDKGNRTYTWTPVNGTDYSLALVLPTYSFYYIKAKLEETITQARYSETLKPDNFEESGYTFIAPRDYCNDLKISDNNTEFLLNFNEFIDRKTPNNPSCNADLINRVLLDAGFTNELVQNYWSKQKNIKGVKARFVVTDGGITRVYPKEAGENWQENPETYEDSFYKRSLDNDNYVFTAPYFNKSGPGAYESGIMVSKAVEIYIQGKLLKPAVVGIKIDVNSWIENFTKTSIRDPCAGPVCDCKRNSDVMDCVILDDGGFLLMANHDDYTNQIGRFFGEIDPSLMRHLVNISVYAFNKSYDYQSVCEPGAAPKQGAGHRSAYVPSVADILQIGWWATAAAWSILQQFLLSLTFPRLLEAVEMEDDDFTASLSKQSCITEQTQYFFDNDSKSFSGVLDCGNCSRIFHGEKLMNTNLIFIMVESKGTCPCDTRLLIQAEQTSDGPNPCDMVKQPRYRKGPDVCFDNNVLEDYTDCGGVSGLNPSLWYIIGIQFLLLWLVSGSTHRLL

Compound | Ki [1] | Ki [2]
CNCC[C@H](c1cccs1)N1CC(C)(C)c2nc(OC)ccc21 [Example 114, (R)-3-(5-methoxy-3,3-dimethyl-2,3-dihydro-1H-pyrrolo[3,2-b]pyridin-1-yl)-N-methyl-3-(thiophen-2-yl)propan-1-amine] | > 1000 nM | 100 to 500 nM
CNCC[C@H](c1ccsc1)N1CCc2ncc(C)cc21 [Example 103, (R)—N-methyl-3-(6-methyl-2,3-dihydro-1H-pyrrolo[3,2-b]pyridin-1-yl)-3-(thiophen-3-yl)propan-1-amine] | > 1000 nM | 100 to 500 nM
CNCC[C@@H](c1cccs1)N1c2ccccc2C[C@H]1C [Example 117, (S)—N-methyl-3-((R)-2-methylindolin-1-yl)-3-(thiophen-2-yl)propan-1-amine] | < 100 nM | ≥ 3000 nM
CNCCC(c1ccsc1)N1CCc2cnccc21 (stereo not drawn) [Example 74, 3-(2,3-Dihydro-1H-pyrrolo[3,2-c]pyridin-1-yl)-N-methyl-3-(thiophen-3-yl)propan-1-amine] | > 1000 nM | 500 to 3000 nM
CNCCC(c1cccs1)N1CCc2c(F)cc(F)cc21 (stereo not drawn) [Example 68, 3-(4,6-Difluoroindolin-1-yl)-N-methyl-3-(thiophen-2-yl)propan-1-amine] | < 100 nM | 500 to 3000 nM
CNCC[C@@H](c1ccsc1)N1CC(C)(C)c2nc(C)ccc21 [Example 59, (S)-N-methyl-3-(thiophen-3-yl)-3-(3,3,5-trimethyl-2,3-dihydro-1H-pyrrolo[3,2-b]pyridin-1-yl)propan-1-amine] | 100 to 500 nM | 100 to 500 nM
CNCC[C@H](c1cccs1)N1CC(C)(C)c2ncccc21 [Example 20, (R)-3-(3,3-Dimethyl-2,3-dihydro-1H-pyrrolo[3,2-b]pyridin-1-yl)-N-methyl-3-(thiophen-2-yl)propan-1-amine] | > 1000 nM | 100 to 500 nM
CNCC[C@H](c1cccs1)N1CCc2nc(C(C)C)ccc21 [Example 48, (R)-3-(5-Isopropyl-2,3-dihydro-1H-pyrrolo[3,2-b]pyridin-1-yl)-N-methyl-3-(thiophen-2-yl)propan-1-amine] | > 1000 nM | 500 to 3000 nM
CNCCC(c1ccsc1)N1CC(C)(C)c2ncc(Cl)cc21 (racemic) [Example 80, 3-(6-Chloro-3,3-dimethyl-2,3-dihydro-1H-pyrrolo[3,2-b]pyridin-1-yl)-N-methyl-3-(thiophen-3-yl)propan-1-amine] | > 1000 nM | 100 to 500 nM
CNCC[C@H](c1ccsc1)N1CC(C)(C)c2nc(C(F)(F)F)ccc21 (racemic) [Example 79, 3-(3,3-Dimethyl-5-(trifluoromethyl)-2,3-dihydro-1H-pyrrolo[3,2-b]pyridin-1-yl)-N-methyl-3-(thiophen-3-yl)propan-1-amine] | > 1000 nM | 100 to 500 nM
CNCC[C@H](c1cccs1)N1CC(C)(C)c2nc(C)ccc21 [Example 34, (R)-N-methyl-3-(thiophen-2-yl)-3-(3,3,5-trimethyl-2,3-dihydro-1H-pyrrolo[3,2-b]pyridin-1-yl)propan-1-amine] | > 1000 nM | < 100 nM
CNCCC(c1cccs1)N1CC(C)(C)c2ncccc21 (stereo not drawn) [Example 12, 3-(3,3-Dimethyl-2,3-dihydro-1H-pyrrolo[3,2-b]pyridin-1-yl)-N-methyl-3-(thiophen-2-yl)propan-1-amine] | 500 to 1000 nM | 100 to 500 nM
CNCC[C@@H](c1ccsc1)N1CCc2nc(C)ccc21 [Example 63, (S)—N-methyl-3-(5-methyl-2,3-dihydro-1H-pyrrolo[3,2-b]pyridin-1-yl)-3-(thiophen-3-yl)propan-1-amine] | 500 to 1000 nM | 500 to 3000 nM
CNCC[C@H](c1ccsc1)N1CC(C)(C)c2ncc(F)cc21 [Example 87, (R)-3-(6-Fluoro-3,3-dimethyl-2,3-dihydro-1H-pyrrolo[3,2-b]pyridin-1-yl)-N-methyl-3-(thiophen-3-yl)propan-1-amine] | > 1000 nM | 100 to 500 nM
CNCCC(c1ccsc1)N1CC(C)(C)c2nc(C)c(F)cc21 (stereo not drawn) [Example 71, 3-(6-Fluoro-3,3,5-trimethyl-2,3-dihydro-1H-pyrrolo[3,2-b]pyridin-1-yl)-N-methyl-3-(thiophen-3-yl)propan-1-amine] | 100 to 500 nM | < 100 nM
CNCCC(c1ccsc1)N1CCc2ncc(C)cc21 (stereo not drawn) [Example 14, N-methyl-3-(6-methyl-2,3-dihydro-1H-pyrrolo[3,2-b]pyridin-1-yl)-3-(thiophen-3-yl)propan-1-amine] | 500 to 1000 nM | 100 to 500 nM
CNCC[C@@H](c1cccs1)N1CC(C)(C)c2nc(OC)ccc21 [Example 113, (S)-3-(5-Methoxy-3,3-dimethyl-2,3-dihydro-1H-pyrrolo[3,2-b]pyridin-1-yl)-N-methyl-3-(thiophen-2-yl)propan-1-amine] | 500 to 1000 nM | 500 to 3000 nM
CNCC[C@H](c1cscc1C)N1CCc2ncccc21 [Example 51, (R)-3-(2,3-Dihydro-1H-pyrrolo[3,2-b]pyridin-1-yl)-N-methyl-3-(4-methylthiophen-3-yl)propan-1-amine] | > 1000 nM | ≥ 3000 nM
CNCC[C@H](c1ccsc1)N1CCc2ncc(F)cc21 [Example 28, (R)-3-(6-Fluoro-2,3-dihydro-1H-pyrrolo[3,2-b]pyridin-1-yl)-N-methyl-3-(thiophen-3-yl)propan-1-amine] | 500 to 1000 nM | 100 to 500 nM
CNCCC(c1ccsc1)N1CCc2ccccc21 (racemic) [Example 78, 3-(Indolin-1-yl)-N-methyl-3-(thiophen-3-yl)propan-1-amine] | < 100 nM | ≥ 3000 nM
CNCC[C@H](c1ccsc1)N1CC(C)(C)c2nc(C(F)(F)F)ccc21 [Example 108, (R)-3-(3,3-dimethyl-5-(trifluoromethyl)-2,3-dihydro-1H-pyrrolo[3,2-b]pyridin-1-yl)-N-methyl-3-(thiophen-3-yl)propan-1-amine] | > 1000 nM | 100 to 500 nM
CNCC[C@H](c1cccs1)N1CC(C)(C)c2ncc(Cl)cc21 [Example 110, (R)-3-(6-chloro-3,3-dimethyl-2,3-dihydro-1H-pyrrolo[3,2-b]pyridin-1-yl)-N-methyl-3-(thiophen-2-yl)propan-1-amine] | > 1000 nM | 100 to 500 nM

Continued, values first:

Ki [1] | Ki [2] | Compound
> 1000 nM | 100 to 500 nM | CCNCCC(c1cccs1)N1CCc2ncccc21 (stereo not drawn) [Example 8, 3-(2,3-Dihydro-1H-pyrrolo[3,2-b]pyridin-1-yl)-N-ethyl-3-(thiophen-2-yl)propan-1-amine]
100 to 500 nM | 500 to 3000 nM | CNCC[C@H](c1cccs1)N1CCc2ncccc21 [Example 17, (R)-3-(2,3-dihydro-1H-pyrrolo[3,2-b]pyridin-1-yl)-N-methyl-3-(thiophen-2-yl)propan-1-amine]
500 to 1000 nM | 100 to 500 nM | CNCCC(c1cccs1)N1CCc2nc(C)ccc21 (stereo not drawn) [Example 11, N-methyl-3-(5-methyl-2,3-dihydro-1H-pyrrolo[3,2-b]pyridin-1-yl)-3-(thiophen-2-yl)propan-1-amine]
500 to 1000 nM | 500 to 3000 nM | CNCCC(c1ccc(F)s1)N1CCc2ncccc21 (stereo not drawn) [Example 6, 3-(2,3-Dihydro-1H-pyrrolo[3,2-b]pyridin-1-yl)-3-(5-fluorothiophen-2-yl)-N-methylpropan-1-amine]
500 to 1000 nM | ≥ 3000 nM | CCc1cnc2c(c1)N([C@@H](CCNC)c1cccs1)CC2 [Example 33, (S)-3-(6-Ethyl-2,3-dihydro-1H-pyrrolo[3,2-b]pyridin-1-yl)-N-methyl-3-(thiophen-2-yl)propan-1-amine]
< 100 nM | 500 to 3000 nM | CNCCC(c1cccs1)N1CCc2ccccc21 (stereo not drawn) [Example 1, 3-(Indolin-1-yl)-N-methyl-3-(thiophen-2-yl)propan-1-amine]
> 1000 nM | ≥ 3000 nM | CNCC[C@@H](c1nccs1)N1CCc2ncccc21 [Example 55, (S)-3-(2,3-Dihydro-1H-pyrrolo[3,2-b]pyridin-1-yl)-N-methyl-3-(thiazol-2-yl)propan-1-amine]
500 to 1000 nM | 500 to 3000 nM | CNCC[C@H](c1ccc(F)s1)N1CCc2ncccc21 [Example 18, (R)-3-(2,3-Dihydro-1H-pyrrolo[3,2-b]pyridin-1-yl)-3-(5-fluorothiophen-2-yl)-N-methylpropan-1-amine]
500 to 1000 nM | ≥ 3000 nM | CNCC[C@@H](c1cccs1)N1CCc2ncc(OC)cc21 [Example 31, (S)-3-(6-Methoxy-2,3-dihydro-1H-pyrrolo[3,2-b]pyridin-1-yl)-N-methyl-3-(thiophen-2-yl)propan-1-amine]
> 1000 nM | 500 to 3000 nM | CNCC[C@@H](c1cc(C)cs1)N1CCc2ncccc21 [Example 57, (S)-3-(2,3-Dihydro-1H-pyrrolo[3,2-b]pyridin-1-yl)-N-methyl-3-(4-methylthiophen-2-yl)propan-1-amine]
> 1000 nM | 500 to 3000 nM | CNCC[C@H](c1ccc(Cl)s1)N1CCc2ncccc21 [Example 41, (R)-3-(5-Chlorothiophen-2-yl)-3-(2,3-dihydro-1H-pyrrolo[3,2-b]pyridin-1-yl)-N-methylpropan-1-amine]
